Measured values as given in patent US12077503B2, “Substituted cyclic amides and their use as herbicides” (FMC CORPORATION, priority 2015, dated 2024).

Key:
Type in all cases: in vivo
[1] = system: giant foxtail (Setaria faberii); experiment: Test A preemergence; details: Setaria faberi, pre-emergence, 240 h; for pest or weed control at 125 g/ha: 125 g ai/ha, preemergence, 0 to 100 scale where 0 is no effect and 100 is complete control, read-out: Foxtail, Giant plant response rating; for pest or weed control at 500 g/ha: 500 g ai/ha, Preemergence, visual injury vs untreated controls after approximately 10 d, read-out: Foxtail, Giant plant response rating (0 to 100 scale where 0 is no effect and 100 is complete control)
How it was run: (§1)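 Preemergence directed soil spray on seeded pots, or postemergence application to plants 2–10 cm, one- to two-leaf. Solvent mixture non-phytotoxic, with surfactant. Scored ~10 d later, visually, 0–100 vs untreated.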

[2] = system: pigweed (Amaranthus retroflexus); experiment: Test A preemergence; details: Amaranthus retroflexus, pre-emergence, 240 h; for pest or weed control at 125 g/ha: 125 g ai/ha, preemergence, 0 to 100 scale where 0 is no effect and 100 is complete control, read-out: Pigweed plant response rating; for pest or weed control at 500 g/ha: 500 g ai/ha, Preemergence, visual injury vs untreated controls after approximately 10 d, read-out: Pigweed plant response rating (0 to 100 scale where 0 is no effect and 100 is complete control)
[3] = system: Kochia (Kochia scoparia); experiment: Test A preemergence; details: Bassia scoparia, pre-emergence, 240 h; for pest or weed control at 125 g/ha: 125 g ai/ha, preemergence, 0 to 100 scale where 0 is no effect and 100 is complete control, read-out: Kochia plant response rating; for pest or weed control at 500 g/ha: 500 g ai/ha, Preemergence, visual injury vs untreated controls after approximately 10 d, read-out: Kochia plant response rating (0 to 100 scale where 0 is no effect and 100 is complete control)
How it was run: as §1

[4] = system: ryegrass, Italian (Italian ryegrass, Lolium multiflorum); experiment: Test A preemergence; details: Lolium multiflorum, pre-emergence, 240 h; for pest or weed control at 125 g/ha: 125 g ai/ha, preemergence, 0 to 100 scale where 0 is no effect and 100 is complete control, read-out: Ryegrass, Italian plant response rating; for pest or weed control at 500 g/ha: 500 g ai/ha, Preemergence, visual injury vs untreated controls after approximately 10 d, read-out: Ryegrass, Italian plant response rating (0 to 100 scale where 0 is no effect and 100 is complete control)
How it was run: as §1

[5] = system: ragweed (common ragweed, Ambrosia elatior); experiment: Test A preemergence; details: Ambrosia artemisiifolia, pre-emergence, 240 h; for pest or weed control at 125 g/ha: 125 g ai/ha, preemergence, 0 to 100 scale where 0 is no effect and 100 is complete control, read-out: Ragweed plant response rating; for pest or weed control at 500 g/ha: 500 g ai/ha, Preemergence, visual injury vs untreated controls after approximately 10 d, read-out: Ragweed plant response rating (0 to 100 scale where 0 is no effect and 100 is complete control)
How it was run: as §1

[6] = system: barnyardgrass (Echinochloa crus-galli); experiment: Test A preemergence; details: Echinochloa crus-galli, pre-emergence, 240 h; for pest or weed control at 125 g/ha: 125 g ai/ha, preemergence, 0 to 100 scale where 0 is no effect and 100 is complete control, read-out: Barnyardgrass plant response rating; for pest or weed control at 500 g/ha: 500 g ai/ha, Preemergence, visual injury vs untreated controls after approximately 10 d, read-out: Barnyardgrass plant response rating (0 to 100 scale where 0 is no effect and 100 is complete control)
How it was run: as §1

[7] = system: giant foxtail (Setaria faberii); experiment: Test A postemergence; details: Setaria faberi, post-emergence, 240 h, 125 g ai/ha, postemergence, visual injury rating after approximately 10 d; read-out: Foxtail, Giant plant response rating (0 to 100 scale, 0 no effect, 100 complete control)
How it was run: as §1

[8] = system: Galium (catchweed bedstraw, Galium aparine); experiment: Test A postemergence; details: Galium, post-emergence, 240 h, 125 g ai/ha, postemergence, visual injury rating after approximately 10 d; read-out: Galium plant response rating (0 to 100 scale, 0 no effect, 100 complete control)
How it was run: as §1

[9] = system: corn (Zea mays); experiment: Test A postemergence; details: Zea mays, post-emergence, 240 h, 125 g ai/ha, postemergence, visual injury rating after approximately 10 d; read-out: Corn plant response rating (0 to 100 scale, 0 no effect, 100 complete control)
How it was run: as §1

[10] = system: pigweed (Amaranthus retroflexus); experiment: Test A postemergence; details: Amaranthus retroflexus, post-emergence, 240 h, 125 g ai/ha, postemergence, visual injury rating after approximately 10 d; read-out: Pigweed plant response rating (0 to 100 scale, 0 no effect, 100 complete control)
How it was run: as §1

[11] = system: blackgrass (Alopecurus myosuroides); experiment: Test A postemergence; details: Alopecurus myosuroides, post-emergence, 240 h, 125 g ai/ha, postemergence, visual injury rating after approximately 10 d; read-out: Blackgrass plant response rating (0 to 100 scale, 0 no effect, 100 complete control)
How it was run: as §1

[12] = system: Kochia (Kochia scoparia); experiment: Test A postemergence; details: Bassia scoparia, post-emergence, 240 h, 125 g ai/ha, postemergence, visual injury rating after approximately 10 d; read-out: Kochia plant response rating (0 to 100 scale, 0 no effect, 100 complete control)
How it was run: as §1

[13] = system: ryegrass, Italian (Italian ryegrass, Lolium multiflorum); experiment: Test A postemergence; details: Lolium multiflorum, post-emergence, 240 h, 125 g ai/ha, postemergence, visual injury rating after approximately 10 d; read-out: Ryegrass, Italian plant response rating (0 to 100 scale, 0 no effect, 100 complete control)
How it was run: as §1

[14] = system: wheat (Triticum aestivum); experiment: Test A postemergence; details: Triticum aestivum, post-emergence, 240 h, 125 g ai/ha, postemergence, visual injury rating after approximately 10 d; read-out: Wheat plant response rating (0 to 100 scale, 0 no effect, 100 complete control)
How it was run: as §1

[15] = system: ragweed (common ragweed, Ambrosia elatior); experiment: Test A postemergence; details: Ambrosia artemisiifolia, post-emergence, 240 h, 125 g ai/ha, postemergence, visual injury rating after approximately 10 d; read-out: Ragweed plant response rating (0 to 100 scale, 0 no effect, 100 complete control)
How it was run: as §1

[16] = system: barnyardgrass (Echinochloa crus-galli); experiment: Test A postemergence; details: Echinochloa crus-galli, post-emergence, 240 h, 125 g ai/ha, postemergence, visual injury rating after approximately 10 d; read-out: Barnyardgrass plant response rating (0 to 100 scale, 0 no effect, 100 complete control)
How it was run: as §1

Row | Compound | pest or weed control at 125 g/ha [1] | pest or weed control at 500 g/ha [1] | pest or weed control at 125 g/ha [2] | pest or weed control at 500 g/ha [2] | pest or weed control at 125 g/ha [3] | pest or weed control at 500 g/ha [3] | pest or weed control at 125 g/ha [4] | pest or weed control at 500 g/ha [4] | pest or weed control at 125 g/ha [5] | pest or weed control at 500 g/ha [5] | pest or weed control at 125 g/ha [6] | pest or weed control at 500 g/ha [6] | pest or weed control at 125 g/ha [7] | pest or weed control at 125 g/ha [8] | plant injury at 125 g/ha [9] | pest or weed control at 125 g/ha [10] | pest or weed control at 125 g/ha [11] | pest or weed control at 125 g/ha [12] | pest or weed control at 125 g/ha [13] | plant injury at 125 g/ha [14] | other results
1 | COc1c(F)ccc([C@H]2CN(C)C(=O)[C@@H]2C(=O)Nc2ccc(F)cc2F)c1Cl [Compound 894] | 90% | 100% | 20% | 50% | 60% | 90% | 50% | 60% | 0% | 40% | 90% | 100% | 90% | 40% | 60% | 0% | 0% | 50% | 50% | 20% | pest or weed control at 125 g/ha [15]: 0%; pest or weed control at 125 g/ha [16]: 90%
2 | CN1C[C@H](c2cc(F)c(C(F)(F)F)c(F)c2)[C@@H](C(=O)Nc2cccc(F)c2F)C1=O [Compound 898] | 90% | 90% | 60% | 80% | 70% | 90% | 40% | 70% | 60% | 60% | 90% | 90% | 80% | 0% | 70% | 40% | 50% | 0% | 50% | 40% | pest or weed control at 125 g/ha [15]: 0%; pest or weed control at 125 g/ha [16]: 80%
3 | O=C1NC[C@H](c2ccc3c(c2)CCO3)[C@H]1C(=O)Nc1ccc(F)cc1F [Compound 902] | 30% | 90% | 0% | 0% | 0% | 0% | 0% | 20% | 0% | 0% | 40% | 90% | 30% | 0% | 0% | 0% | 0% | 0% | 0% | 0% | pest or weed control at 125 g/ha [15]: 0%; pest or weed control at 125 g/ha [16]: 60%
4 | CCOc1ccc([C@H]2CN(C)C(=O)[C@@H]2C(=O)Nc2ccccc2F)cc1 [Compound 903] | 90% | 90% | 0% | 0% | 20% | 90% | 0% | 0% | 0% | 0% | 90% | 90% | 80% | 10% | 0% | 0% | 0% | 0% | 0% | 0% | pest or weed control at 125 g/ha [15]: 0%; pest or weed control at 125 g/ha [16]: 80%
5 | CCOc1ccc([C@H]2CNC(=O)[C@@H]2C(=O)Nc2cccc(F)c2F)cc1 [Compound 907] | 80% | 90% | 0% | 0% | 0% | 20% | 0% | 0% | 0% | 0% | 70% | 80% | 60% | 0% | 0% | 0% | 0% | 0% | 0% | 0% | pest or weed control at 125 g/ha [15]: 0%; pest or weed control at 125 g/ha [16]: 50%
6 | Cc1cc(C)cc([C@H]2CNC(=O)[C@@H]2C(=O)Nc2ccccc2C(F)(F)F)c1 [Compound 909] | 90% | 90% | 0% | 0% | 0% | 50% | 0% | 30% | 0% | 20% | 70% | 80% | 40% | 0% | 0% | 0% | 0% | 0% | 0% | 0% | pest or weed control at 125 g/ha [15]: 0%; pest or weed control at 125 g/ha [16]: 50%
